EP1184030A1, “Antibacterial composition comprising trimethylnorbornanylcyclohexanol derivatives” (Givaudan SA, priority 2000, dated 2002)
Values after ≈ are worked out from the molar mass of the structure shown. Where two headings read alike, the source gives them in different places.

Legend:
Test in all cases: MIC microtiter plate test, axilla bacteria
Type in all cases: cell-based
[1] = system: Ax 10 Corynebacterium jeikeium; details: Corynebacterium jeikeium, 24 h, read-out: Minimal inhibitory concentration (MIC)
Source text: (§1) The different bacterial strains had been isolated from the human axilla by current microbiological practice. They were taxonomically identified by cell morphology, gram-reaction and biochemical tests included in the Api coryne test kit (BioMerieux, France). Strain Staphylococcus epidermidis Ax25 was identified by fatty acid methyl ester analysis (FAME; German type strain collection DSMZ, Germany). The strains were maintained on Tryptic soy broth plates, this standard medium being amended with 5 g per Litre of Tween 80 and 1 g of Soybean lecithin. Plates were incubated at 36° C for a period 48 hours. The bacteria were then swabbed from the plates and suspended in 4 ml of Müller-Hinton broth amended with 100 mg of Tween80 per Litre (MH-Tween) and incubated again at 36° C for 16 hours. Following incubation the bacterial suspensions were diluted in MH-Tween to obtain a final cell density of 10^6 colony forming units per ml. For each fragrance material four microtiter plates were used in the example, each microtiter plate having 8 rows, A-H, and 12 columns, 1-12. To each column a diluted suspension of a different test organism was distributed, 100 µl per well. 1% stock solutions of the fragrance materials were then prepared in MH-Tween broth. The fragrance material was dispersed by ultrasonication into the aqueous medium to obtain a homogenous emulsion. 100 µl per well of this emulsion was then added to the first row of the microtiter plates already containing the target organisms. Serial dilution series were then prepared starting at row A and continuing until row G, each time removing 100 µl from a well and transferring it to the next well. In this way fragrance concentrations of 0.5%, 0.25%, 0.125%, 0.0625%, 0.03125%, 0.0156% and 0.0078% were tested for their antibacterial efficacy. The reference compound Triclosan was tested at 16 fold lower concentrations. The plates were covered with plastic films and incubated for 24 h at 36° C with shaking at 250 rpm. The turbidity developing in the microtiter plates was then examined after 24 h to determine microbial growth. The minimal concentration of fragrance inhibiting the growth of an organism by at least 80% was determined as the minimal inhibitory concentration (MIC).
(§2) Ax 25 was identified as Staphylococcus epidermidis by FAME analysis. Identification with the Api Coryne test kit yielded the following species assignments for the remainder of the strains: Ax 26 Corynebacterium sp.; Ax 3 Corynebacterium bovis; Ax 7 Corynebacterium group G; Ax 10 Corynebacterium jeikeium; Ax 11 Corynebacterium jeikeium; Ax 12 Corynebacterium jeikeium; Ax 15 Corynebacterium jeikeium; Ax 20 Corynebacterium striatum/amycolatum; Ax 19 Corynebacterium jeikeium. The strains were isolated from the axilla of 8 human volunteers. Based on biochemical tests and colony morphology all strains were distinct from each other, even the several strains all belonging to Corynebacterium jeikeium.

[2] = system: Ax 11 Corynebacterium jeikeium; details: Corynebacterium jeikeium, 24 h, read-out: Minimal inhibitory concentration (MIC)
Source text: as §1, §2

[3] = system: Ax 12 Corynebacterium jeikeium; details: Corynebacterium jeikeium, 24 h, read-out: Minimal inhibitory concentration (MIC)
Source text: as §1, §2

[4] = system: Ax 15 Corynebacterium jeikeium; details: for MIC: Corynebacterium jeikeium, 24 h
Source text: as §1, §2

[5] = system: Ax 19 Corynebacterium jeikeium; details: 24 h, read-out: Minimal inhibitory concentration (MIC)
Source text: as §1, §2

[6] = system: Ax 20 Corynebacterium striatum/amycolatum; details: Corynebacterium striatum, 24 h, read-out: Minimal inhibitory concentration (MIC)
Source text: as §1, §2

[7] = system: Ax 26 Corynebacterium sp.; details: for MIC: Corynebacterium
Source text: as §1, §2

[8] = system: Ax 3 Corynebacterium bovis; details: Corynebacterium bovis, 24 h, read-out: Minimal inhibitory concentration (MIC)
Source text: as §1, §2

[9] = system: Ax 7 Corynebacterium group G; details: for MIC: Corynebacterium, 24 h
Source text: as §1, §2

[10] = system: Staphylococcus epidermidis Ax25; details: for MIC: Staphylococcus epidermidis, AX25, 24 h
Source text: as §1, §2

[11] = read-out: Bacteriostatic activity (concentration needed for at least 80% reduction in growth)
[12] = read-out: Minimal inhibitory concentration (MIC)

Oc1cc(Cl)ccc1Oc1ccc(Cl)cc1Cl [Triclosan, 2,4,4'-trichloro-2'-hydroxy-diphenyl-ether]
MIC [1]: 20 µg/mL (≈ 69.1 µM) | MIC [2]: 29 µg/mL (≈ 100 µM) | MIC [3]: 17 µg/mL (≈ 58.7 µM) | MIC [4, 11]: 30 µg/mL (≈ 104 µM) | MIC [4, 12]: 29 µg/mL (≈ 100 µM) | Bacteriostatic activity (concentration needed for at least 80% reduction in growth) ([4]; Table 8, Corynebact. Ax15, 24 hours): 0.0030 percent (w/v) | MIC [5]: 39 µg/mL (≈ 135 µM) | MIC [6]: 107 µg/mL (≈ 370 µM) | MIC ([7]; Ax26, growth inhibition by at least 80%, 24 h at 36° C, read-out: Minimal inhibitory concentration (MIC)): 15 µg/mL (≈ 51.8 µM) | MIC ([7]; Table 7, Corynebact. Ax26, 24 hours, read-out: Bacteriostatic activity (concentration needed for at least 80% reduction in growth)): 25 µg/mL (≈ 86.3 µM) | Bacteriostatic activity (concentration needed for at least 80% reduction in growth) ([7]; Table 8, Corynebact. Ax26, 24 hours): 0.0025 percent (w/v) | MIC [8]: 29 µg/mL (≈ 100 µM) | MIC [9, 11]: 25 µg/mL (≈ 86.3 µM) | MIC [9, 12]: 29 µg/mL (≈ 100 µM) | Bacteriostatic activity (concentration needed for at least 80% reduction in growth) ([9]; Table 8, Corynebact. Ax7, 24 hours): 0.0025 percent (w/v) | MIC [10, 11]: 0.15 µg/mL (≈ 0.518 µM) | MIC [10, 12]: 0.15 µg/mL (≈ 0.518 µM) | Bacteriostatic activity (concentration needed for at least 80% reduction in growth) ([10]; Table 8, S. epidermidis, 24 hours): 0.000015 percent (w/v)
